Laboratory results published in patent publication US11884685B2, “Rhenium complexes and methods of use for treating cancer” (CORNELL UNIVERSITY, priority 2018, dated 2024).

Tests used:
[1] = test system: A2780 (ovarian cancer) cells; assay: MTT cell viability (cytotoxicity); format: cell-based; conditions: 48 hours incubation
Procedure: (§1) All compounds were dissolved in PBS at pH 7.4 to prepare 1-2 mM stock solutions. For cell viability studies, all cells were grown to 80-90% confluence, detached with trypsin/EDTA, seeded in 96-well plates at 4000-8000 cells/well in 100 μL of growth media, and incubated for 24 hours. The medium was removed and replaced with fresh medium (200 μL) containing varying dilutions of either the rhenium compounds, cisplatin, or media. The cells were then incubated for 48 hours. The medium was removed from the wells, and 3-(4,5-dimethylthiazol-2-yl)-[…] (MTT) in DMEM, RPMI, or MEM (200 μL, 1 mg/mL) was added. The additional 48 hours incubation was performed to ensure that the cells were in the logarithmic growth phase and that the cells had adequate time to regrow after exposure to the complexes. After 4 hours, the MTT/DMEM, RPMI, or MEM solution was removed, and the formazan crystals were dissolved in 200 μL of an 8:1 mixture of DMSO and pH 10 glycine buffer. The absorbance at 570 nm in each well was measured using a BioTek Synergy HT plate reader. Cell viability was determined by normalizing the absorbance of the treated wells to untreated wells. The % viability data shown is an average of three independent experiments with six replicates per concentration

[2] = test system: A2780CP70 (cisplatin-resistant ovarian cancer) cells; assay: MTT cell viability (cytotoxicity); format: cell-based; conditions: 48 hours incubation, read-out: IC50 A2780 CP70 (cisplatin-resistant ovarian cancer)
Procedure: as §1

A549 (lung cancer) cells = assay: MTT cell viability (cytotoxicity); format: cell-based; conditions: 48 hours incubation
Procedure: as §1

HEK293 (kidney) cells = assay: MTT cell viability (cytotoxicity); format: cell-based; conditions: 48 hours incubation, non-cancer cell line
Procedure: as §1

[3] = test system: HeLa (cervical cancer) cells; assay: MTT cell viability (cytotoxicity); format: cell-based; conditions: 48 hours incubation
Procedure: as §1

A2780 cells = test system: A2780 cells
Source text: (§2) Salubrinal operates by inhibiting dephosphorylation of the master regulatory protein eukaryotic initiation factor 2α (eIF2α), an integral component of the UPR. […] Next, the downstream effects of eIF2α phosphorylation were investigated. The most immediate and pronounced effect of eIF2α phosphorylation is the inhibition of translation (S. R. Kimball, Int. J. Biochem. Cell Biol. 1999, 31, 25-29).

[4] = test system: mutant MEF cell line incapable of eIF2α phosphorylation; conditions: mutant cells after treatment
Source text: as §2

[5] = test system: eIF2α phosphorylation, ATF4, CHOP in A2780 cells
Source text: as §2
(§3) Hyperphosphorylation of eIF2α can lead to apoptosis via upregulation of the stress-related transcription factors ATF4 and CHOP (H. Matsumoto et al., Biol. Open 2013, 2, 1084-1090). […] Phosphorylation of eIF2α also results in cell cycle arrest in the G1 phase (J. W. Brewer et al., Proc. Natl. Acad. Sci. U.S.A. 2000, 97, 12625-12630).

cells = conditions: vs untreated cells
Source text: as §3

HeLa cells [6] = conditions: 5 μM, within 30 minutes, vs untreated cells
Source text: Phosphorylation of eIF2α often occurs due to the accumulation of misfolded proteins.

[7] = test system: National Cancer Institute (NCI)-60 cell line panel
[8] = test system: cytochrome c release from the mitochondria; conditions: flow cytometry
HeLa cells [9] = test system: HeLa cells
LC3 in A2780 cells = conditions: after 24 hours
[10] = test system: proteasome inhibition, HSP90 inhibition, reactive oxygen species generation

Compound | IC50 [1] | IC50 [2] | IC50 (A549 (lung cancer) cells) | IC50 (HEK293 (kidney) cells) | IC50 [3] | puromycin incorporation (translation) (A2780 cells; 5 μM, as early as 2 hour post incubation, vs untreated controls) | factor of increase in activity in presence of salubrinal (A2780 cells; 25 μM salubrinal) | translation levels in eIF2α mutant MEF cells [4] | ATF4 and CHOP expression ([5]; Western blot) | eIF2α phosphorylation ([5]; as little as 2 hours after exposure) | increase in population of cells in the G1 phase (cells) | fluorescence intensity of ThT (protein aggregates) (HeLa cells [6]) | activity across NCI-60 cell line panel [7] | cytochrome c release from mitochondria [8] | mitochondrial morphology (HeLa cells [9]; HeLa cells, 5 μM, after only 30 minutes) | mitochondrial polarization (JC-1) (HeLa cells [9]; ratiometric sensor JC-1) | LC3II expression relative to LC3I (LC3 in A2780 cells) | protein misfolding via proteasome inhibition, HSP90 inhibition, or ROS generation [10]
N.N.[Cl][Pt][Cl] [Cisplatin, cisplatin] | 1.3 ± 0.1 µM | 12 ± 3 µM | 5.6 ± 0.5 µM | 1.7 ± 0.2 µM | 6.6 ± 0.7 µM | – | – | – | – | – | – | – | – | – | – | – | – | –
[Re(CO)3(dmphen)(p-tol-ICN)]Cl [TRIP] | 1.7 ± 0.7 µM | 1.9 ± 1 µM | 1.4 ± 0.6 µM | 1.9 ± 0.2 µM | 1.4 ± 0.2 µM | substantially less puromycin | 4 | no changes in translation levels | both ATF4 and CHOP were upregulated | induction of eIF2α phosphorylation | 18% | increased significantly | most potent in melanoma and breast cancer cells lines and least effective in lung and renal cancer cell lines | Cytochrome c release occurs on the same time scale as apoptosis induction | significantly rounded and punctate | mitochondria remained functional | large increase in LC3II expression relative to LC3I | no evidence has been found
Cc1ccc2ccc3ccc(C)nc3c2n1.[C-]#[O+].[C-]#[O+].[C-]#[O+].[Re+] [Neo-Re, [Re(CO)3(dmphen)(OH2)]^+] | 5.7 ± 0.6 µM | 6 ± 0.2 µM | 7.7 ± 2.4 µM | 9 ± 0.3 µM | 4.4 ± 1.3 µM | – | – | – | – | – | – | – | – | – | – | – | – | –
